Laboratory results from publication PMC11963566, “A phase I, single-center, randomized, open-label, three-period crossover study to evaluate the drug–drug interaction between ZSP1273 and oseltamivir in healthy Chinese subjects” (Antimicrobial Agents and Chemotherapy, 2025).
Read-outs that look alike come from different tables or passages of the source.

Assays:
[1] = in humans; not measured in this study, no reference given; cited from earlier work
[2] = tested on: influenza A; conditions: adult patients, especially 600 mg once per day; cited from earlier work
[3] = tested on: influenza A (2009 H1N1); conditions: compared with oseltamivir or pimodivir; cited from earlier work
[4] = doses up to 1,200 mg; cited from earlier work
[5] = for AUC0-t,ss / AUC0-τ,ss / AUC0-∞,ss / CLss/F / Cmax,ss / Vz/F / t1/2,ss / λz / Ctrough: arithmetic mean ± SD; for Tmax,ss: median (minimum, maximum)
[6] = Safety assessment: adverse events (CTCAE 5.0, MedDRA 23.1) in healthy subjects; type: in vivo, human
Description: Safety assessment was conducted from the first administration of the investigational drug until the end of the trial. Safety indicators included adverse events (AEs), serious adverse events (SAEs), clinical laboratory tests (hematology, biochemistry, and urinalysis), vital signs, physical examination, and 12-lead electrocardiogram.
The severity of AE was assessed according to the CTCAE 5.0 standard and includes grades 1 to 5. Based on the criteria for determining causality between drugs and adverse events, the relationship was classified into five levels: definitely related, probably related, possibly related, probably not related, definitely not related. Among them, definitely related, probably related, and possibly related are defined as drug-related AEs.
Adverse events were coded using Med DRA 23.1 Chinese ([30]) and analyzed based on system organ class (SOC) and preferred term (PT). Adverse events during the treatment period, drug-related adverse events, and serious adverse events were described by frequency, number of cases (n), and incidence rate (%) according to SOC, PT, and the highest severity classification.

[7] = co-administration ZSP1273 600 mg QD + oseltamivir 75 mg BID, oral, 5 days, plasma, day 5
[8] = co-administration ZSP1273 + oseltamivir, plasma, day 5
[9] = co-administration versus monotherapy analysis
[10] = monotherapy (ZSP1273 600 mg QD or oseltamivir 75 mg BID, oral, 5 days), plasma, day 5
[11] = subjects with AUC_%Extrap >20.0% or Rsq <0.800 excluded
[12] = SOC Gastrointestinal disorders, probably related
[13] = SOC General disorders and administration site conditions, possibly related
[14] = SOC Infections and infestations, probably not related
[15] = SOC Investigations, possibly related
[16] = SOC Investigations, probably not related
[17] = SOC Skin and subcutaneous tissue disorders, possibly related
[18] = healthy subjects, 5 days dosing

For `O=C(O)[C@H]1C2CCC(CC2)[C@@H]1Nc1nc(-c2n[nH]c3ncc(F)cc23)nc(C2CC2)c1F` [ZSP1273], the “plasma protein binding rate” value [1] is listed as “greater than 98.9%”, the efficacy versus placebo [2] is listed as “higher efficacy than placebo in ameliorating influenza symptoms and lowering the viral load” and the “pulmonary viral loads and mortality” value [3] is listed as “effectively reduced pulmonary viral loads and mortality”. For the same molecule, the “safety in healthy volunteers” value [4] was “no apparent safety concerns were noticed”, the “AUC0-∞,ss, intra-individual coefficient of variation” value ([5]; all subjects) was 23.4% and the “AUC0-∞,ss, geometric mean ratio co-administration/monotherapy” value ([5]; all subjects, no-effect boundary 80%–125%) was 91.8%. The “AUC0-t,ss” value [5, 7] was 14,939.0 ± 6,027.0 (40.3%) h*ng/mL, the “AUC0-τ,ss” value [5, 7] was 13,656.5 ± 4,758.0 (34.8%) h*ng/mL and the “AUC0-∞,ss” value [5, 7] was 15,865.8 ± 6,635.4 (41.8%) h*ng/mL. For the same molecule, the CLss/F [5, 7] was 48.6 ± 15.3 (31.4%) L/h, the “Cmax,ss” value [5, 7] was 6,270.0 ± 3,369.7 (53.7%) ng/mL and the Vz/F [5, 7] was 923.8 ± 659.5 (71.4%) L. For the same molecule, the “t1/2,ss” value [5, 7] was 14.0 ± 10.3 (73.5%) h, the λz [5, 7] was 0.070 ± 0.041 (58.7%) 1 /h and the “Tmax,ss” value [5, 7] was 1.50 (0.25, 4.00) h. The Ctrough ([5]; co-administration ZSP1273 600 mg QD + oseltamivir 75 mg BID, oral, 5 days, plasma) was 77.7 ± 49.7 (64.0%) ng/mL, the “AUC0-t,ss, geometric mean” value [5, 8] was 13,926.7 h*ng/mL and the “AUC0-τ,ss, geometric mean” value [5, 8] was 12,964.7 h*ng/mL. The “Cmax,ss, geometric mean” value [5, 8] was 5,466.0 ng/mL, the “AUC0-∞,ss, geometric mean” value ([5]; co-administration ZSP1273 + oseltamivir, plasma, day 5, all subjects) was 14,749.3 h*ng/mL and the “AUC0-t,ss, intra-individual coefficient of variation” value [5, 9] was 19.9%. For the same molecule, the “AUC0-τ,ss, intra-individual coefficient of variation” value [5, 9] was 18.6%, the “Cmax,ss, intra-individual coefficient of variation” value [5, 9] was 49.2% and the “AUC0-∞,ss, geometric mean” value ([5]; co-administration, subjects with AUC_%Extrap >20.0% or Rsq <0.800 excluded) was 14,219.8^b h*ng/mL. The “AUC0-t,ss, geometric mean ratio co-administration/monotherapy” value ([5]; human, in vivo) was 92.8%, the “AUC0-τ,ss, geometric mean ratio co-administration/monotherapy” value ([5]; human, in vivo) was 96.3% and the “Cmax,ss, geometric mean ratio co-administration/monotherapy” value ([5]; human, in vivo) was 99.9%. The “AUC0-t,ss” value [5, 10] was 16,529.6 ± 7,808.2 (47.2%) h*ng/mL, the “AUC0-τ,ss” value [5, 10] was 14,487.1 ± 5,519.8 (38.1%) h*ng/mL and the “AUC0-∞,ss” value [5, 10] was 18,392.1 ± 12,058.8 (65.6%) h*ng/mL. For the same molecule, the CLss/F [5, 10] was 47.4 ± 17.8 (37.5%) L/h, the Vz/F [5, 10] was 1,006.5 ± 1,265.7 (125.8%) L and the “t1/2,ss” value [5, 10] was 17.8 ± 33.6 (189.1%) h. The λz [5, 10] was 0.074 ± 0.046 (62.5%) 1 /h, the “Tmax,ss” value [5, 10] was 0.88 (0.25, 4.01) h and the Ctrough ([5]; monotherapy (ZSP1273 600 mg QD or oseltamivir 75 mg BID, oral, 5 days), plasma) was 86.3 ± 77.4 (89.6%) ng/mL. The “Cmax,ss” value ([5]; monotherapy (ZSP1273 tablets 600 mg QD or oseltamivir capsules 75 mg BID, oral, 5 days), plasma, day 5) was 6,421.7 ± 3,660.6 (57.0%) ng/mL, the “AUC0-t,ss, geometric mean” value ([5]; monotherapy, plasma, day 5) was 15,031.4 h*ng/mL and the “AUC0-τ,ss, geometric mean” value ([5]; monotherapy, plasma, day 5) was 13,543.4 h*ng/mL. For the same molecule, the “Cmax,ss, geometric mean” value ([5]; monotherapy, plasma, day 5) was 5,517.1 ng/mL, the “AUC0-∞,ss, geometric mean” value ([5]; monotherapy, plasma, day 5, all subjects) was 16,036.9 h*ng/mL and the “AUC0-∞,ss, geometric mean” value ([5]; monotherapy, subjects with AUC_%Extrap >20.0% or Rsq <0.800 excluded) was 15,576.5^a h*ng/mL. For the same molecule, the “AUC0-∞,ss, geometric mean ratio co-administration/monotherapy” value [5, 11] was 94.5%, the “AUC0-∞,ss, intra-individual coefficient of variation” value [5, 11] was 18.8% and the “Gastrointestinal disorders (SOC): Cases (%)” value ([6]; AE by system organ class) was 5 (13.9) Cases (%). The “Gastrointestinal disorders (SOC): Occurrences” value ([6]; AE by system organ class) was 5, the “General disorders and administration site conditions (SOC): Cases (%)” value ([6]; AE by system organ class) was 0 Cases (%) and the “General disorders and administration site conditions (SOC): Occurrences” value ([6]; AE by system organ class) was 0. For the same molecule, the “Infections and infestations (SOC): Cases (%)” value ([6]; AE by system organ class) was 0 Cases (%), the “Infections and infestations (SOC): Occurrences” value ([6]; AE by system organ class) was 0 and the “Investigations (SOC): Cases (%)” value ([6]; AE by system organ class) was 8 (22.2) Cases (%). For the same molecule, the “Investigations (SOC): Occurrences” value ([6]; AE by system organ class) was 18, the “Skin and subcutaneous tissue disorders (SOC): Cases (%)” value ([6]; AE by system organ class) was 1 (2.8) Cases (%) and the “Skin and subcutaneous tissue disorders (SOC): Occurrences” value ([6]; AE by system organ class) was 1. For the same molecule, the “Diarrhea: Cases (%)” value [6, 12] was 5 (13.9) Cases (%), the “Diarrhea: Occurrences” value [6, 12] was 5 and the “Fever: Cases (%)” value [6, 13] was 0 Cases (%). The “Fever: Occurrences” value [6, 13] was 0, the “Upper respiratory tract infection (URTI): Cases (%)” value [6, 14] was 0 Cases (%) and the “Upper respiratory tract infection (URTI): Occurrences” value [6, 14] was 0. The “Decreased blood triglycerides: Cases (%)” value [6, 15] was 0 Cases (%), the “Decreased blood triglycerides: Occurrences” value [6, 15] was 0 and the “Decreased high-density lipoprotein (HDL): Cases (%)” value [6, 15] was 1 (2.8) Cases (%). For the same molecule, the “Decreased high-density lipoprotein (HDL): Occurrences” value [6, 15] was 1, the “Decreased neutrophil count: Cases (%)” value [6, 15] was 0 Cases (%) and the “Decreased neutrophil count: Occurrences” value [6, 15] was 0. For the same molecule, the “Increased blood cholesterol: Cases (%)” value [6, 15] was 2 (5.6) Cases (%), the “Increased blood cholesterol: Occurrences” value [6, 15] was 2 and the “Increased blood creatinine: Cases (%)” value [6, 15] was 3 (8.3) Cases (%). The “Increased blood creatinine: Occurrences” value [6, 15] was 3, the “Increased blood triglycerides: Cases (%)” value [6, 15] was 4 (11.1) Cases (%) and the “Increased blood triglycerides: Occurrences” value [6, 15] was 4. For the same molecule, the “Increased blood uric acid: Cases (%)” value [6, 15] was 2 (5.6) Cases (%), the “Increased blood uric acid: Occurrences” value [6, 15] was 2 and the “Increased gamma-glutamyl transferase (GGT): Cases (%)” value [6, 15] was 1 (2.8) Cases (%). For the same molecule, the “Increased gamma-glutamyl transferase (GGT): Occurrences” value [6, 15] was 1, the “Increased lipase: Cases (%)” value [6, 15] was 1 (2.8) Cases (%) and the “Increased lipase: Occurrences” value [6, 15] was 1. The “Increased low-density lipoprotein (LDL): Cases (%)” value [6, 15] was 2 (5.6) Cases (%), the “Increased low-density lipoprotein (LDL): Occurrences” value [6, 15] was 2 and the “Crystals present in urine: Cases (%)” value [6, 16] was 0 Cases (%). The “Crystals present in urine: Occurrences” value [6, 16] was 0, the “Decreased hemoglobin: Cases (%)” value [6, 16] was 2 (5.6) Cases (%) and the “Decreased hemoglobin: Occurrences” value [6, 16] was 2. For the same molecule, the “Increased urine specific gravity: Cases (%)” value [6, 16] was 0 Cases (%), the “Increased urine specific gravity: Occurrences” value [6, 16] was 0 and the “Nitrites present in urine: Cases (%)” value [6, 16] was 0 Cases (%). The “Nitrites present in urine: Occurrences” value [6, 16] was 0, the “Positive urine occult blood: Cases (%)” value [6, 16] was 0 Cases (%) and the “Positive urine occult blood: Occurrences” value [6, 16] was 0. The “Protein detected in urine: Cases (%)” value [6, 16] was 0 Cases (%), the “Protein detected in urine: Occurrences” value [6, 16] was 0 and the “Acneiform dermatitis: Cases (%)” value [6, 17] was 0 Cases (%). The “Acneiform dermatitis: Occurrences” value [6, 17] was 0, the “Maculopapular rash: Cases (%)” value [6, 17] was 1 (2.8) Cases (%) and the “Maculopapular rash: Occurrences” value [6, 17] was 1. For the same molecule, the “diarrhea, incidence” value ([6]; drug-related adverse event) was 13.9%, the “increased blood triglycerides, incidence” value ([6]; drug-related adverse event) was 11.1% and the “subjects with drug-related adverse events, incidence” value ([6]; healthy subjects) was 30.6%. For the same molecule, the “At least one treatment-emergent adverse event (TEAE): Cases (%)” value [6, 18] was 12 (33.3) Cases (%), the “At least one treatment-emergent adverse event (TEAE): Occurrences” value [6, 18] was 24 and the “At least one treatment-emergent adverse event related to drugs: Cases (%)” value [6, 18] was 11 (30.6) Cases (%). For the same molecule, the “At least one treatment-emergent adverse event related to drugs: Occurrences” value [6, 18] was 22.
